Molecular target: T1, human 5-HT1A receptors (Homo sapiens, UniProt P08908)
T1 construct: expressed in transfected cells; membranes used
T1 sequence (P08908 1-422): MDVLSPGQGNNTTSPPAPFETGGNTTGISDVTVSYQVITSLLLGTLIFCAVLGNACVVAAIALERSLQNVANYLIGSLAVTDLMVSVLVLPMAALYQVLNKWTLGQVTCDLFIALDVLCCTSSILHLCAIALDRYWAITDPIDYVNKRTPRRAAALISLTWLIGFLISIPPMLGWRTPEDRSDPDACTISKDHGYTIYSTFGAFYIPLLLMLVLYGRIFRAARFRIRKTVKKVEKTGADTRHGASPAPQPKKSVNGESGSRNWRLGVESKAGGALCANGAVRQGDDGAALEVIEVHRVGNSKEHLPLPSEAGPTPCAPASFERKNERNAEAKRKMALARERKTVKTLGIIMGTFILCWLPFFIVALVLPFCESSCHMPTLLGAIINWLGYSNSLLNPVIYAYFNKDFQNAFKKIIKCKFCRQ
Assay: [35S]-GTPγS binding assay: enhancement of 8-OH-DPAT-induced stimulation, human 5-HT1A CHO cell membranes
Assay type: biochemical
Conditions: n=6
Method: CHO cells stably transfected with cDNA encoding human 5-HT1A receptors (a generous gift from Dr Keith Parker) were maintained at 37° C. and 5% CO2 in Gibco™ Ham's F-12 Nutrient Mix supplied by Fisher Scientific UK Ltd that was supplemented both with 2 mM L-glutamine, 10% FBS and 0.6% penicillin-streptomycin, all also supplied by Fisher Scientific UK Ltd, and with the disulphate salt of G418 [(2R,3S,4R,5R,6S)-5-amino-6-{[(1R,2S,3S,4R,6S)-4,6-diamino-3-{[(2R,3R,4R,5R)-3,5-dihy-droxy-5-methyl-4-(methylamino)oxan-2-yl]oxy}2-hydroxy cyclohexyl]oxy}-2-[(1R)-1-hydroxyethyl]oxane-3,4-diol; […]] supplied by Sigma-Aldrich UK.
[^35S]-GTPγS binding assay. Each assay was carried out with human 5-HT1A CHO cell membranes (50 μg protein per well), GTPγS-binding buffer (50 mM Tris-HCl; 50 mM Tris-Base; 5 mM MgCl2; 1 mM EDTA; 100 mM NaCl; 1 mM DTT and 0.1% BSA), 0.1 nM [^35S]-GTPγS and 30 μM GDP, in a final volume of 500 μL (Cascio et al., 2010). Binding was initiated by the addition of [^35S]-GTPγS to the wells. Non-specific binding was measured in the presence of 30 μM GTPγS. Assays were performed at 30° C. for 60 min (Cascio et al., 2010). The reaction was terminated by a rapid vacuum filtration method using Tris-binding buffer as described previously by Cascio et al. (2010), and the radioactivity was quantified by liquid scintillation spectrometry. In all the [^35S]-GTPγS-binding assays, 0.1 nM [^35S]-GTPγS was used, […] and a protein concentration of […]. CBDA, HU-580, 8-OH-DPAT and WAY100635 were stored at −20° C. as 10 mM stock solutions dissolved in DMSO.
Net agonist-stimulated [^35S]-GTPγS binding values were calculated by subtracting basal binding values (obtained in the absence of agonist) from agonist-stimulated values (obtained in the presence of agonist) (Cascio et al., 2010). Values are expressed as means and variability as SEM or as 95% confidence limits. Mean EC50 and mean maximal effect (Emax) values, and SEM or 95% confidence limits of these values, have been calculated by nonlinear regression analysis using the equation for a sigmoid concentration-response curve (GraphPad Prism). P values<0.05 were considered significant. The data and statistical analysis comply with the recommendations on experimental design and analysis in pharmacology (Curtis et al., 2015).

Row | SMILES | Emax (pretreatment 0.01 nM CBDA (FIG. 1A)) [%] | Emax (pretreatment 0.1 nM CBDA (FIG. 1B), * P<0.05 vs vehicle) [%] | Emax (pretreatment 1.0 nM CBDA (FIG. 1C), * P<0.05 vs vehicle) [%] | Emax (pretreatment 10 nM CBDA (FIG. 1D), * P<0.05 vs vehicle) [%] | Emax (pretreatment 100 nM CBDA (FIG. 1E)) [%] | Effect of the compound by itself on [35S]-GTPγS binding (agonist or inverse agonist behaviour) (administered by itself at 0.01, 0.1, 1, 10 or 100 nM, data not shown) | Emax (pretreatment 0.001 nM HU-580 (FIG. 2A)) [%] | Emax (pretreatment 0.001 nM HU-580 (FIG. 2B), * P<0.05 vs vehicle) [%] | Emax (pretreatment 0.1 nM HU-580 (FIG. 2C), * P<0.05 vs vehicle) [%] | Emax (pretreatment 1.0 nM HU-580 (FIG. 2D), * P<0.05 vs vehicle) [%] | Emax (pretreatment 10 nM HU-580 (FIG. 2E), * P<0.05 vs vehicle) [%] | Emax (pretreatment 100 nM HU-580 (FIG. 2F)) [%]
1 | C=C(C)[C@@H]1CCC(C)=C[C@H]1c1c(O)cc(CCCCC)c(C(=O)O)c1O [CBDA, Cannabidiolic acid] | 95.6 | 115 | 167 | 144 | 109 |  |  |  |  |  |  | 
2 | C=C(C)[C@@H]1CCC(C)=C[C@H]1c1c(O)cc(CCCCC)c(C(=O)OC)c1O [HU-580, Cannabidiolic Acid Methyl Ester] |  |  |  |  |  | did not behave as a 5-HT1A receptor agonist or inverse agonist | 99.8 | 127 | 125 | 140 | 139 | 92

— patent US11440870B2, “Cannabidiolic acid esters compositions and uses thereof” (Yissum Research Development Company of the Hebrew …, priority 2017, dated 2022)
